Data on 28 molecules can be found in the COVID Moonshot data (paper PMC11187573), “Identification of SARS-CoV-2 Mpro inhibitors through deep reinforcement learning for de novo drug design and computational chemistry approaches” (RSC Medicinal Chemistry, 2024).

What is called inhibition is the relative decrease from the control value, in per cent. By IC50 is commonly meant the concentration that gives 50% inhibition.

Series [1] has as its target SARS-CoV-2 Main Protease (SARS-CoV-2) (UniProt P0DTD1).
Series [2] has the same target. This is another data set of the same source.
Procedure: Briefly, compounds were seeded into assay-ready plates (Greiner 384PP, cat# 781280) using an ECHO 650T dispenser and DMSO was back-filled for a uniform concentration in assay plates (DMSO concentration < 1%, final volume = 500 nL.). […] After a quick centrifugation step (1000 rpm, 15 s) the plate is incubated for 15 min at room temperature. […] After centrifugation (1000 rpm, 14 s) the reaction is incubated for 10 min (11-mer) or 5 min (37-mer) at room temperature before quenching with 10 % formic acid. The reactions are analysed with MS using RapidFire (RF) 365 high-throughput sampling robot (Agilent) connected to an iFunnel Agilent 6550 accurate mass quadrupole time-of-flight (Q-TOF) mass spectrometer using electrospray. […] Dose response curves uses an 11-point range of 100--0.0017 µM inhibitor concentrations. RapidFire integrator software (Agilent) was used to extract the charged states from the total ion chromatogram data followed by peak integration. For the 11-mer peptide the m/z (+1) charge states of both the substrate (1191.67 Da) and cleaved N-terminal product TSAVLQ (617.34 Da) were used and the 37-mer peptide the m/z (+2) charge states of the substrate (3960.94 Da) and m/z (+1) of the cleaved C-terminal product [sequence] (1125.57 Da). Percentage conversion (product peak integral / (product peak integral + substrate peak integral))*100) and percentage inhibitions were calculated and normalised against DMSO control with deduction of any background signal in Microsoft Excel. IC50s were calculated using Levenberg–Marquardt algorithm used to fit a restrained Hill equation to the dose-response data with both GraphPad PRISM and CDD.

`C=CC(=O)N(c1ccc(C(C)(C)C)cc1)C(C(=O)NC(C)(C)C)c1cccnc1` (centres undefined) came in with a relative solubility at 20 uM of 0.96 and a relative solubility at 100 uM of 0.89. In addition, the inhibition in series [1] (20.0 µM) amounted to 12.7%. The inhibition in series [1] (50.0 µM) turned out to be 27.2%. The inhibition in series [2] (20.0 µM) stood at 0%. The inhibition in series [2] (50.0 µM) turned out to be 16.1%.
Molecule `COC(=O)C(Cc1ccccc1)C(C)NC(=O)C(C)n1ccnc1` (centres undefined) yielded a relative solubility at 20 uM of 1 and a relative solubility at 100 uM of 1. Besides, the inhibition in series [1] (50.0 µM) turned out to be 11.9%. Besides, the inhibition in series [2] (20.0 µM) is 0%. The inhibition in series [2] (50.0 µM) stood at 0%.
For the molecule `CC(=O)NCCc1cn(CC(=O)N2CCOCC2)c2ccccc12`, the relative solubility at 20 uM was 0.97 and the relative solubility at 100 uM was 0.96. Also, the inhibition in series [1] (50.0 µM) turned out to be 6.56%. Also, the inhibition in series [2] (20.0 µM) worked out at 0%. Moreover, the inhibition in series [2] (50.0 µM) is 0%.
Molecule `O=C(Cc1c[nH]c2ncccc12)N(Cc1c(F)cccc1Cl)c1ccc2[nH]c(=O)[nH]c2c1` registered a relative solubility at 20 uM of 0.95 and a relative solubility at 100 uM of 0.88. The inhibition in series [1] (20.0 µM) is 6.29%. Further, the inhibition in series [1] (50.0 µM) was -1.08%. Further, the inhibition in series [2] (50.0 µM) is 12.4%.
For `Cc1ccncc1NC(=O)C1C2CCOCC21` (centres undefined), the relative solubility at 20 uM was 1 and the relative solubility at 100 uM is 1. In addition, the inhibition in series [1] (20.0 µM) is -18.9%. Also, the inhibition in series [1] (50.0 µM) was -10.8%. In addition, the inhibition in series [2] (50.0 µM) was determined as 0%.
On to `C=CC(=O)N(c1ccc(C(C)(C)C)cc1)C(C(=O)Nc1cccc(F)c1C)c1cccnc1` (centres undefined), for which the relative solubility at 20 uM worked out at 1 and the relative solubility at 100 uM stood at 0.98. In series [1] (50.0 µM), the inhibition is -14.8%. Besides, in series [2] (20.0 µM), the inhibition was determined as 0%. Besides, the inhibition in series [2] (50.0 µM) worked out at 0%.
In turn, `C=C(CN(C)C)C(=O)N1Cc2ccccc2C(c2ccccc2)C1` (centres undefined) came in with a relative solubility at 20 uM of 1 and a relative solubility at 100 uM of 0.97. In addition, the inhibition in series [1] (20.0 µM) worked out at 0.735%. Besides, the inhibition in series [1] (50.0 µM) was 10.3%. The inhibition in series [2] (20.0 µM) turned out to be 0%.
The molecule `N#Cc1ccnc(CNC(=O)Cc2c[nH]c3ncccc23)c1` showed a relative solubility at 20 uM of 0.97 and a relative solubility at 100 uM of 0.98. Also, in series [1] (20.0 µM), the inhibition was -23.2%. Moreover, in series [1] (50.0 µM), the inhibition was -17.2%. The inhibition in series [2] (20.0 µM) amounted to 0%.
As to `O=C(Nc1ccccc1)Nc1cnc2ccc([N+](=O)[O-])cc2n1`, the relative solubility at 20 uM was 0.86 and the relative solubility at 100 uM came to 0.84. In addition, the inhibition in series [1] (20.0 µM) was -15.3%. The inhibition in series [1] (50.0 µM) was 9.06%. Also, the inhibition in series [2] (50.0 µM) worked out at 0.772%.
In the case of `N#Cc1cccc(NC(=O)Cc2c[nH]c3ncccc23)c1`, the relative solubility at 20 uM came to 1 and the relative solubility at 100 uM amounted to 0.95. The inhibition in series [1] (20.0 µM) came out at 2.74%. The inhibition in series [1] (50.0 µM) was determined as 2.91%. The inhibition in series [2] (20.0 µM) worked out at 0%.
Take `CC1CC(C)CN(C(=O)c2ccccc2NC(=O)NCc2ccoc2)C1` (centres undefined): the relative solubility at 20 uM stood at 1 and the relative solubility at 100 uM was 0.99. Further, the inhibition in series [1] (50.0 µM) is 8.34%. The inhibition in series [2] (20.0 µM) turned out to be 0%. Further, the inhibition in series [2] (50.0 µM) was found to be 0%.
Turning to `C=CC(=O)N(c1ccc(N(C)C)c(C)c1)C(C(=O)Nc1ccc(OC)cc1)c1cccnc1` (centres undefined), the relative solubility at 20 uM was 0.88 and the relative solubility at 100 uM stood at 0.77. In addition, in series [1] (20.0 µM), the inhibition is 2.56%. Also, the inhibition in series [1] (50.0 µM) was 7.05%. The inhibition in series [2] (20.0 µM) was determined as 0%. For the same molecule, the inhibition in series [2] (50.0 µM) is 2.05%.
Regarding `C=CC(=O)N(c1cc(C)cc(N)c1)C(C(=O)NC(C)(C)C)c1cccnc1` (centres undefined), the relative solubility at 20 uM was 0.99 and the relative solubility at 100 uM was 0.98. Besides, in series [1] (20.0 µM), the inhibition is -15.1%. The inhibition in series [1] (50.0 µM) was -19.4%. Besides, the inhibition in series [2] (20.0 µM) turned out to be 0%. Besides, the inhibition in series [2] (50.0 µM) turned out to be 0%.
Regarding `C=CC(=O)NCC(=O)N(CCN1CCOCC1)Cc1ccccc1Cl`, the relative solubility at 20 uM came to 1 and the relative solubility at 100 uM stood at 1. Further, in series [1] (20.0 µM), the inhibition was -18.3%. The inhibition in series [1] (50.0 µM) was -19.7%. The inhibition in series [2] (20.0 µM) is 0%. Moreover, the inhibition in series [2] (50.0 µM) was 0%.
With `O=C(Nc1cccnc1)Nc1ccc(Cl)s1`, the relative solubility at 20 uM was found to be 0.99 and the relative solubility at 100 uM was 0.95. In series [1] (20.0 µM), the inhibition was found to be 8.85%. Besides, in series [1] (50.0 µM), the inhibition is 23.7%. The inhibition in series [2] (20.0 µM) stood at 0%. In series [2] (50.0 µM), the inhibition worked out at 35.7%.
In the case of `CCC(=O)NCC[C@@H]1CCc2ccc3c(c21)CCO3` (stereo in doubt), the relative solubility at 20 uM is 1 and the relative solubility at 100 uM stood at 1. Also, the inhibition in series [1] (20.0 µM) is 0.473%. Further, the inhibition in series [1] (50.0 µM) worked out at 6.69%. In addition, the inhibition in series [2] (20.0 µM) is 0%.
The molecule `Cc1cccc(NC2CCN(c3ccc(S(N)(=O)=O)cc3)CC2)c1` yielded a relative solubility at 20 uM of 0.96 and a relative solubility at 100 uM of 0.87. Further, the inhibition in series [1] (20.0 µM) is -2.59%. Besides, the inhibition in series [1] (50.0 µM) was -0.838%. Also, the inhibition in series [2] (20.0 µM) came out at 39.4%. The inhibition in series [2] (50.0 µM) was found to be 45.9%.
Molecule `O=C(c1cc(=O)[nH]c2ccccc12)N1CCN(Cc2ccccc2)CC1` displayed a relative solubility at 20 uM of 0.99 and a relative solubility at 100 uM of 1. Further, the inhibition in series [1] (20.0 µM) was determined as 74.5%. Besides, the inhibition in series [1] (50.0 µM) worked out at 87.8%. Further, the IC50 in series [2] came out at 18.8 µM. Also, the inhibition in series [2] (50.0 µM) came to 82.4%.
In the case of `C=CC(=O)N(c1ccc(C(F)(F)F)cc1)C(C(=O)Nc1ccc(OC)cc1C)c1cccnc1` (centres undefined), the relative solubility at 20 uM was determined as 0.95 and the relative solubility at 100 uM worked out at 0.62. Further, the inhibition in series [1] (20.0 µM) was 7.06%. In addition, the inhibition in series [1] (50.0 µM) was determined as 25.4%. Moreover, the inhibition in series [2] (20.0 µM) was found to be 11%.
Turning to `CCSCC1CCN(c2ccc(S(N)(=O)=O)cc2)CC1`, the relative solubility at 20 uM was 1 and the relative solubility at 100 uM is 1.01. Moreover, the inhibition in series [1] (50.0 µM) was -25.8%. Besides, the inhibition in series [2] (20.0 µM) was found to be 26%. Moreover, the inhibition in series [2] (50.0 µM) was found to be 40.2%.
Turning to `NS(=O)(=O)c1ccc(N2CCC(c3nc4ccccc4s3)CC2)cc1`, the relative solubility at 20 uM came out at 0.76 and the relative solubility at 100 uM worked out at 0.52. In series [1] (20.0 µM), the inhibition is -11.9%. Besides, the inhibition in series [1] (50.0 µM) is -12%. Also, in series [2] (20.0 µM), the inhibition worked out at 0%.
In turn, `C#CCN1CCN(C(=O)CCl)CC1` registered a relative solubility at 20 uM of 1 and a relative solubility at 100 uM of 1. In series [1] (50.0 µM), the inhibition came to 27.2%. In addition, the inhibition in series [2] (20.0 µM) turned out to be 6.86%. The inhibition in series [2] (50.0 µM) is 7.12%.
For `Cc1cc(NC(=O)Cc2cncnc2)cc(OC2CC(=O)N2)c1` (centres undefined), the relative solubility at 20 uM was 1.01 and the relative solubility at 100 uM worked out at 1. The inhibition in series [1] (20.0 µM) turned out to be 49.3%. Moreover, in series [1] (50.0 µM), the inhibition turned out to be 72.7%. Also, the inhibition in series [2] (50.0 µM) was 45%.
`CO[C@@H](C)C(=O)Nc1cnccc1C` (stereo in doubt): the relative solubility at 20 uM was found to be 1 and the relative solubility at 100 uM worked out at 1.01. Also, in series [1] (20.0 µM), the inhibition is 1.23%. For the same molecule, the inhibition in series [1] (50.0 µM) turned out to be 0.255%. Also, in series [2] (50.0 µM), the inhibition is 6.67%.
Molecule `Cc1ccncc1NC(=O)CC1CCCNC1` (centres undefined) displayed a relative solubility at 20 uM of 1 and a relative solubility at 100 uM of 1. For the same molecule, in series [1] (20.0 µM), the inhibition is -1.91%. In addition, in series [1] (50.0 µM), the inhibition was determined as 16.7%. Moreover, the inhibition in series [2] (50.0 µM) was 0%.
In turn, `C=CC(=O)N(c1ccc2c(ccn2C)c1)C(C(=O)NC(C)(C)C)c1cccnc1` (centres undefined) registered a relative solubility at 20 uM of 1.01 and a relative solubility at 100 uM of 1. Moreover, in series [1] (20.0 µM), the inhibition is -17.6%. Besides, in series [1] (50.0 µM), the inhibition was -18%. Also, the inhibition in series [2] (20.0 µM) was determined as 0%.
In turn, `C=CC(=O)N(c1ccc(C(F)(F)F)cc1)C(C(=O)NCCc1cccc(F)c1)c1cncc(Cl)c1` (centres undefined) gave a relative solubility at 20 uM of 0.94 and a relative solubility at 100 uM of 0.28. Further, the inhibition in series [1] (20.0 µM) came out at 50.2%. Further, the inhibition in series [1] (50.0 µM) turned out to be 68.2%. This molecule came in with a concentration for half-maximal inhibition (IC50) in series [2] of 4.84 µM. For the same molecule, in series [2] (50.0 µM), the inhibition was determined as 82.1%.
With `C=CC(=O)N1CCN(Cc2c[nH]c3ccc(C#N)cc23)CC1`, the relative solubility at 20 uM was 0.97 and the relative solubility at 100 uM worked out at 0.92. In series [1] (20.0 µM), the inhibition is -36.2%. The inhibition in series [1] (50.0 µM) was -27.1%. Besides, the inhibition in series [2] (20.0 µM) was determined as 0%. Further, the inhibition in series [2] (50.0 µM) was 0%.
